The values below come from paper PMC3597730, “Novel Phenolic Inhibitors of Small/Intermediate-Conductance Ca^2+-Activated K^+ Channels, KCa3.1 and KCa2.3” (PLoS ONE, 2013).

Structures are written as SMILES. Several values for one entry are separate records, joined by “and”; a condition that tells them apart may be missing. Equal values may be shown once. Entries after “also recorded” stand apart in the source; their conditions may differ. Read-outs that look alike come from different tables or passages of the source. Bounds are passed on as bounds.

For this assay, the target named is T1, KCa3.1 channels in 3T3 fibroblasts (Mus musculus, UniProt O89109).
T1 construct: KCa3.1 channels in 3T3 fibroblasts; endogenous in cells; host or cells: 3T3-L1 mouse embryonic fibroblasts
The assay is described as follows: Whole-cell patch-clamp of KCa3.1 currents in 3T3 fibroblasts. Particulars: for remaining activity at 1 µM: compound 1 µM, read-out: % of control at 1 µM; for remaining activity at 10 µM: read-out: % of control at 10 µM; for KCa3.1 blocking effect (in words) / EC50: whole-cell; for KCa3.1 blocking effect (in words): concentrations up to 50 µM as in Table 1; for remaining activity at 50 µM: compound 50 µM, read-out: % of control at 50 µM. Type of assay: cell-based. On the technique in general: Patch clamp records ionic current or voltage across a cell membrane.

The mark [1] stands for this setting: KCa3.1 whole-cell current, 3T3 fibroblasts, 1 µM free Ca2+ in pipette, mean ± SEM, n ≥3.
Where [2] appears, read: KCa3.1 whole-cell current, 3T3 fibroblasts, 1 µM free Ca2+ in pipette, compound 10 µM, mean ± SEM, n ≥3.
The mark [3] stands for this setting: EC50 of KCa3.1 inhibition, 3T3 fibroblasts.
The mark [4] stands for this setting: 3T3 fibroblasts, read-out: EC50 of KCa3.1 inhibition.

As to `Cc1cccc(Nc2ccccc2C(=O)O)c1C` [Mefenamic Acid, 2-((2,3-dimethylphenyl)amino)benzoic acid, reference compound], under setting [1], the remaining activity at 1 µM is 117 ± 4%. The remaining activity at 10 µM under setting [2] was 136 ± 28%. For the same compound, the “KCa3.1 blocking effect (in words)” value (3T3 fibroblasts) was “no blocking effects”.
Turning to `OCCc1ccc(O)c(O)c1` [Hydroxytyrosol], the remaining activity at 1 µM under setting [1] was 117 ± 9%. Moreover, under setting [2], the remaining activity at 10 µM was 108 ± 15%. Moreover, the “KCa3.1 blocking effect (in words)” value (3T3 fibroblasts) is “weak or no blocking effects and no”.
On to `COc1cc(C(=O)O)ccc1O` [Vanillic Acid, 4-hydroxy-3-methoxybenzoic acid], for which the EC50 – broadly, the concentration giving half of the maximal effect – under setting [3] was over 10 µM. Moreover, the remaining activity at 10 µM under setting [2] worked out at 78 ± 11%. Also, the remaining activity at 50 µM under setting [1] is 46 ± 12%. The “KCa3.1 blocking effect (in words)” value (3T3 fibroblasts) is recorded as “weak or no blocking effects; also recorded: Weak inhibition”.
For `O=C(O)c1cc(O)c(O)c(O)c1` [Gallic acid, 3,4,5-trihydroxybenzoic acid], under setting [2], the remaining activity at 10 µM worked out at 101 ± 6%. The “KCa3.1 blocking effect (in words)” value (3T3 fibroblasts) is “weak or no blocking effects and no”.
Consider `Nc1ccc(O)c(C(=O)O)c1` [Mesalamine, 5-amino-2-hydroxybenzoic acid, reference compound], for which, under setting [1], the remaining activity at 1 µM came to 72 ± 6% and the remaining activity at 50 µM was 46 ± 3%. The remaining activity at 10 µM under setting [2] came out at 53 ± 7%. The concentration for a half-maximal effect (EC50) under setting [4] was ≥ 10 µM and 26 µM.
Regarding `Cc1ccc(=O)n(-c2ccccc2)c1` [Pirfenidone, methyl-1-phenylpyridin-2(1H)-one, reference compound], the remaining activity at 10 µM under setting [2] was determined as 98 ± 5%. Besides, under setting [1], the remaining activity at 50 µM came to 99 ± 14%. In addition, where the note is “3T3 fibroblasts”, the “KCa3.1 blocking effect (in words)” value is given as “no effects”.
For `O=C(/C=C/c1ccc(O)c(O)c1)OCCc1ccccc1` [Caffeic acid phenethyl ester, 2-phenylethyl (E)-3-(3,4-dihydroxyphenyl)propenoate], the remaining activity at 10 µM under setting [2] amounted to 94 ± 6%. For the setting “3T3 fibroblasts”, the “KCa3.1 blocking effect (in words)” value is reported as “no”.
With `O=C(O)c1cccnc1Nc1cccc(C(F)(F)F)c1` [Niflumic Acid, reference compound], the remaining activity at 10 µM under setting [2] came to 106 ± 7%. The remaining activity at 50 µM under setting [1] amounted to 81 ± 4%. The “KCa3.1 blocking effect (in words)” value (3T3 fibroblasts) is on record as “no blocking activity; also recorded: no blocking effects”.
The matching figures for `CC(=O)Oc1ccccc1C(=O)O` [2-acetyloxybenzoic acid, reference compound]: 108 ± 5%, 104 ± 7% and “no effect”.
Regarding `Oc1ccc(/C=C/c2cc(O)cc(O)c2)cc1` [Resveratrol, 5-[(E)-2-(4-Hydroxyphenyl)vinyl]benzene-1,3-diol], under setting [4], the EC50 was 10 µM and ~10 µM and 1 to 10 µM.
As for `COc1cc(/C=C/C(=O)O)ccc1O` [Ferulic Acid, (E)-3-(4-hydroxy-3-methoxyphenyl)propenoic acid], the 50% effective concentration (EC50) under setting [3] is over 10 µM. Moreover, the remaining activity at 10 µM under setting [2] turned out to be 87 ± 8%. Further, under setting [1], the remaining activity at 50 µM was 32 ± 4%.
Consider `O=C(OC[C@H]1O[C@@H](OC(=O)c2cc(O)c(O)c(O)c2)[C@H](OC(=O)c2cc(O)c(O)c(O)c2)[C@@H](OC(=O)c2cc(O)c(O)c(O)c2)[C@@H]1OC(=O)c1cc(O)c(O)c(O)c1)c1cc(O)c(O)c(O)c1` [1,2,3,4,6-pentagalloyl glucose, [(2S,3R,4S,5R,6R)-2,3,5-tris[(3,4,5-trihydroxybenzoyl)oxy]-6-[(3,4,5-trihydroxybenzoyl)oxymethyl]oxan-4-yl] 3,4,5-trihydroxybenzoate], for which the remaining activity at 10 µM under setting [2] came to 102 ± 6%. Also, the “KCa3.1 blocking effect (in words)” value (3T3 fibroblasts) is “no”.
Regarding `NC(=O)C[S+]([O-])C(c1ccccc1)c1ccccc1` (centres unmarked) [Modafinil, 2-benzhydrylsulfinylacetamide, reference compound], the remaining activity at 10 µM was 33 ± 6%. Also, the EC50 under setting [3] is over 1 µM.
